Reference: patent US20220288037A1, “PRODRUGS AND FORMULATIONS THEREOF” (BOARD OF REGENTS OF THE UNIVERSITY OF NEBRASKA, priority 2019, published 2022)

Test: aqueous solubility of prodrug
Type: physicochemical
Details: prodrug compared with parent drug, FIG. 1B
Text: FIGS. 1A-1D provide characterization of a prodrug of nitazoxanide ([…]) and a nanoformulation thereof (NM1NTZ). FIG. 1A provides a Fourier transform infrared (FT-IR) spectrum of […] showing absorption bands at 2915 cm^-1 and 2850 cm^-1, thereby confirming formation of the prodrug as well as the nuclear magnetic resonance spectroscopy of the compound. FIG. 1B provides a graph of the aqueous solubility of […]. […] FIG. 1C provides a graph of cell viability as evaluated by mitochondrial function in monocyte-derived macrophage (MDM) by a 3-(4,5-dimethylthiazol-2-yl)-2,5-diphenyltetrazolium bromide (MTT) assay. NM1NTZ exerted no adverse effects to cell viability at 400 μM of drug or less. FIG. 1D provides graphs showing the particle size, polydispersity index (PDI) and charge of the nanoformulations over time, thereby showing the stability of the nanoparticles.

- aqueous solubility: decreased water solubility
SMILES: CCCCCCCCCCCCCCCCCC(=O)Oc1ccccc1C(=O)Nc1ncc([N+](=O)[O-])s1 [M1NTZ]
